Measured values: patent US20130053387A1, “DESAZADESFERROTHIOCIN AND DESAZADESFERROTHIOCIN POLYETHER ANALOGUES AS METAL CHELATION AGENTS” (FerroKin BioScience, Inc., priority 2010, published 2013)
Values after ≈ are worked out from the molar mass of the structure shown. Like-named read-outs stand apart in the source and are kept apart here.

Assays:
physchem [1] = test: physchem
Experimental: Measurements were taken via LC/MS.
Stir bars were removed and samples centrifuged at 15,000 g for 15 minutes to separate the phases, and pipette and syringe were used to remove the upper (octanol) and lower (buffer) phases to empty tubes, respectively. Aliquots of 5 ni, were taken from upper phases and diluted with 495 ni, of methanol. Aliquots of 50 ni, were taken from lower phases and diluted with 450 ni, of methanol. Reference solutions of progesterone or metopolol were also prepared and tested as standards.

[2] = Solubility determination in PBS by LC/MS/MS; details: for solubility at 2 h: kinetic from dmso stock
[3] = parameters: concentration or dose not given beside the values; details: cited from earlier work
[4] = parameters: concentration or dose not given beside the values; details: cited from earlier work; remark: listed apart in the source
physchem [5] = details: 25 °C, kinetic from dmso stock
[6] = rats, 300 μmol/kg intraperitoneally immediately after uranyl acetate; cited from earlier work
[7] = PBS pH 4.0, 25 °C, pH 4, aqueous buffer
[8] = PBS pH 7.4, 25 °C, pH 7.4, aqueous buffer

| SMILES | logD at 1 h (physchem [1]; pH 7.4) | solubility at 2 h [2, 7] | solubility at 2 h [2, 8] | Rodent ICE [4] | other results |
| --- | --- | --- | --- | --- | --- |
| COCCOCCOCCOc1ccc(C2=NC(C)(C(=O)O)CO2)c(O)c1 (centres unmarked) [Example 2, 2-(2-hydroxy-4-(2-(2-(2-methoxyethoxy)ethoxy)ethoxy)phenyl)-4-methyl-4,5-dihydrooxazole-4-carboxylic acid] | -1.77 | 297 µM (≈ 114 µg/mL) | 291 µM (≈ 112 µg/mL) |  |  |
| COCCOCCOc1ccc(-n2ccc(C(=O)O)n2)c(O)c1 [Example 7, 1-(2-hydroxy-4-(2-(2-methoxyethoxy)ethoxy)phenyl)-1H-pyrazole-3-carboxylic acid] | -2.24 | 294 µM (≈ 94.7 µg/mL) | 297 µM (≈ 95.7 µg/mL) |  |  |
| COCCOCCOCCOc1ccc(-n2ccc(C(=O)O)n2)c(O)c1 [Example 8, 1-(2-hydroxy-4-(2-(2-(2-methoxyethoxy)ethoxy)ethoxy)phenyl)-1H-pyrazole-3-carboxylic acid] | -2.14 | 300 µM (≈ 110 µg/mL) | 298 µM (≈ 109 µg/mL) |  |  |
| COCCOCCOCCOCCOc1ccc(C2=N[C@@](C)(C(=O)O)CS2)c(O)c1 [Example C, (S)-2-(4-(2,5,8,11-tetraoxamidecan-13-yloxy)-2-hydroxyphenyl)-4-methyl-4,5-dihydrothiazole-4-carboxylic acid] |  |  |  | 12.0 ± 1.5% | Primate ICE [3]: 9.8 ± 1.9% |
| COCCOCCOc1cccc(C2=N[C@@](C)(C(=O)O)CS2)c1O [Example D, (S)-2-(2-hydroxy-3-(2-(2-methoxyethoxy)ethoxy)phenyl)-4-methyl-4,5-dihydrothiazole-4-carboxylic acid] |  |  |  | 15.1 ± 2.0% | Primate ICE [3]: 22.5 ± 6.4% |
| COCCOCCOCCOc1cccc(C2=N[C@@](C)(C(=O)O)CS2)c1O [Example E, (S)-2-(2-hydroxy-3-(2-(2-(2-methoxyethoxy)ethoxy)ethoxy)phenyl)-4-methyl-4,5-dihydrothiazole-4-carboxylic acid] |  |  |  | 10.6 ± 4.4%b | Primate ICE [3]: 23.0 ± 4.1% |
| COCCOCCOCCOCCOc1cccc(C2=N[C@@](C)(C(=O)O)CS2)c1O [Example F, (S)-2-(3-(2,5,8,11-tetraoxamidecan-13-yloxy)-2-hydroxyphenyl)-4-methyl-4,5-dihydrothiazole-4-carboxylic acid] |  |  |  | 12.4 ± 1.7% | Primate ICE [3]: 9.6 ± 4.9% |
| O=C(O)Cc1ccccc1Nc1c(Cl)cccc1Cl [diclofenac] |  | 7.47 µM (≈ 2.21 µg/mL) |  |  | Solubility at pH 7.4 ([2]; PBS pH 7.4, 25° C., 2 hours, assay upper limit 300 μM): 273.38 μM |
| COCCc1ccc(OCC(O)CNC(C)C)cc1 (centres unmarked) [metopolol] |  |  |  |  | LogD (physchem [1]; pH 7.4): −0.27 |
| CC(=O)[C@H]1CC[C@H]2[C@@H]3CCC4=CC(=O)CC[C@]4(C)[C@H]3CC[C@]12C [progesterone] |  |  |  |  | logD at 1 h (physchem [1]): 3.71 |

The next lines start with results.

| logD at 1 h (physchem [1]; pH 7.4) | solubility at 2 h [2, 7] | solubility at 2 h [2, 8] | SMILES | Rodent ICE [4] | other results |
| --- | --- | --- | --- | --- | --- |
| -1.39 | 309 µM (≈ 105 µg/mL) | 312 µM (≈ 106 µg/mL) | COCCOCCOc1ccc(C2=NC(C)(C(=O)O)CO2)c(O)c1 (centres unmarked) [Example 1, 2-(2-hydroxy-4-(2-(2-methoxyethoxy)ethoxy)phenyl)-4-methyl-4,5-dihydrooxazole-4-carboxylic acid] |  |  |
| -1.87 | 302 µM (≈ 102 µg/mL) | 299 µM (≈ 101 µg/mL) | COCCOCCOc1ccc(C2=NC(C)(C(=O)O)CN2)c(O)c1 (centres unmarked) [Example 3, 2-(2-hydroxy-4-(2-(2-methoxyethoxy)ethoxy)phenyl)-4-methyl-4,5-dihydro-1H-imidazole-4-carboxylic acid] |  |  |
| -2.13 | 313 µM (≈ 120 µg/mL) | 316 µM (≈ 121 µg/mL) | COCCOCCOCCOc1ccc(C2=NC(C)(C(=O)O)CN2)c(O)c1 (centres unmarked) [Example 4, 2-(2-hydroxy-4-(2-(2-(2-methoxyethoxy)ethoxy)ethoxy)phenyl)-4-methyl-4,5-dihydro-1H-imidazole-4-carboxylic acid] |  |  |
| -2.09 | 306 µM (≈ 104 µg/mL) | 311 µM (≈ 105 µg/mL) | COCCOCCOc1cccc(C2=NC(C)(C(=O)O)CN2)c1O (centres unmarked) [Example 5, 2-(2-hydroxy-3-(2-(2-methoxyethoxy)ethoxy)phenyl)-4-methyl-4,5-dihydro-1H-imidazole-4-carboxylic acid] |  |  |
| -1.98 | 311 µM (≈ 119 µg/mL) | 311 µM (≈ 119 µg/mL) | COCCOCCOCCOc1cccc(C2=NC(C)(C(=O)O)CN2)c1O (centres unmarked) [Example 6, 2-(2-hydroxy-3-(2-(2-(2-methoxyethoxy)ethoxy)ethoxy)phenyl)-4-methyl-4,5-dihydro-1H-imidazole-4-carboxylic acid] |  |  |
| -1.14 |  |  | COCCOCCOc1ccc(C2=N[C@@](C)(C(=O)O)CS2)c(O)c1 [Example A, (S)-2-(2-hydroxy-4-(2-(2-methoxyethoxy)ethoxy)phenyl)-4-methyl-4,5-dihydrothiazole-4-carboxylic acid] | 26.7 ± 4.7% | Primate ICE ([3]; capsule): 26.3 ± 9.9%; Primate ICE ([3]; sodium salt): 28.7 ± 12.4%; solubility at 2 h (physchem [5]; pH 4, aqueous buffer): 309 µM (≈ 110 µg/mL); solubility at 2 h (physchem [5]; pH 7.4, aqueous buffer): 305 µM (≈ 108 µg/mL) |
| -1.45 | 307 µM (≈ 123 µg/mL) | 313 µM (≈ 125 µg/mL) | COCCOCCOCCOc1ccc(C2=N[C@@](C)(C(=O)O)CS2)c(O)c1 [Example B, (S)-2-(2-hydroxy-4-(2-(2-(2-methoxyethoxy)ethoxy)ethoxy)phenyl)-4-methyl-4,5-dihydrothiazole-4-carboxylic acid] | 5.5 ± 1.9% | Primate ICE [3]: 25.4 ± 7.4%; % Dose Cleared [6]: 22%; Uranium Excretion [6]: 626 ± 123 µg/kg; Uranium Excretion vs. Control [6]: 2.2 |
